Here are results for one substance from patent US20260139063A1, “PRE-MEDICATION AND IMPROVED TREATMENT REGIMEN” (MonTa Biosciences ApS, priority 2022, published 2026).

Data set [1] concerns plasma cytokines and chemokines. Briefly: Clinical plasma biomarkers (cytokines and chemokines, MSD multiplex panels) after MBS8(1V270) with or without tocilizumab pre-medication. The data set is classed as in vivo, human. To be noted: patients. Here is the method:
FIG. 1: Detection of cytokines in plasma of subjects treated with 0.1 mg/kg MBS8(1V270) without (left panels) or with (right panels) pre-medication with tocilizumab (8 mg/kg). The measurements were done using GLP/GCP compliant multiplex panels purchased from Meso Scale Discovery (MSD) (Cytokine Panel 1 Human kit, Cytokine Panel 2 Human kit and Chemokine Panel 1 Human kit). Data treatment was performed using GraphPad Prism 9 software. Selected biomarkers were IL-6 (FIG. 1A), TNF-α (FIG. 1B), IL-1RA (FIG. 1C), IFN-γ (FIG. 1D), IP-10 (FIG. 1E), IL-1β (FIG. 1F), IL-8 (FIG. 1G) and IL-10 (FIG. 1H).
MBS8(1V270) was administered to all subjects at 0.1 mg/kg by IV infusion for a duration of 2 hours for four dosing occasions. Infusions were given one week apart on Days 1, 8, 15, and 22. Patients pretreated with tocilizumab were administered tocilizumab (8 mg/kg) prior to MBS8(1V270) infusion on the first dosing occasion (day 1) as a CRS preventive measure. The biomarkers were measured using GLP/GCP compliant and validated multiplex panels purchased from MSD in a quantitative procedure to measure these cytokines and chemokines.
The following plasma biomarkers were identified in this clinical study: safety-related (IL-1β, IL-8, IL-6, TNF-α and IL-10) and pharmacodynamics biomarkers (IFN-γ, MCP-1, IP-10, IL-1RA and IL-12p70) (FIG. 1A-1H). Blood samples were taken at pre-dose (0), 2 h, 8 h, and 24 h post-end of infusion and processed to plasma and frozen for later biomarker analyses.

Data set [2] concerns subjects presenting with advanced solid tumors. Description: Occurrence of Cytokine Release Syndrome (CRS), CTCAE version 5.0 grading, on all dosing occasions. The data set is classed as in vivo, human. Here is the method: FIG. 2: Table overview (FIG. 2A) of CRS occurrences in patients were assessed according to CTCAE grading, in patients treated with MBS8(1V270) on 4 occasions on day 1, 8, 15 and 22. Patient (pt) 1-3 were not pretreated with tocilizumab, whereas pt 4-7 were pretreated with tocilizumab prior to dosing with MBS8(1V270). All subjects received MBS8(1V270) at 0.1 mg/kg at each dosing occasion, and the clinical picture observed and rated according to the CTCAE grading shown in FIG. 2B. N/A=Not applicable. Table overview (FIG. 2B) of official CTCAE grading of patients with CRS symptoms as used for grading of CRS severeness for patients in FIG. 2A.CRS grading was done according to CTCAE Version 5.0.
MBS8(1V270) was administered to all subjects at 0.1 mg/kg by IV infusion for a duration of 2 hours for four dosing occasions. Infusions were given one week apart on Days 1, 8, 15, and 22. Patients pretreated with tocilizumab were administered tocilizumab (8 mg/kg) prior to MBS8(1V270) infusion on the first dosing occasion as a CRS preventive measure. […] Seven subjects presenting with advanced solid tumors were treated with MBS8(1V270) at 0.1 mg/kg once weekly on four dosing occasions as described in Example 1. […] Tocilizumab was administered as a one-hour intravenous infusion at 8 mg/kg just prior to MBS8(1V270) administration.
Occurrence of Cytokine Release Syndrome (CRS) was assessed on all dosing occasions. CRS was defined in accordance with Common Terminology Criteria for Adverse Events (CTCAE) version 5.0 as “a disorder characterized by fever, tachypnea, headache, tachycardia, hypotension, rash, and/or hypoxia caused by the release of cytokines”.

Setting [3] is: tocilizumab 8 mg/kg prior to MBS8(1V270) 0.1 mg/kg IV.
[4] abbreviates: tocilizumab premedicated patients (pt 4-7): tocilizumab 8 mg/kg IV day 1 just prior to MBS8(1V270) 0.1 mg/kg IV, days 1, 8, 15, 22.

“Also recorded” adds a separate entry of the source.

Consider “tocilizumab: humanized monoclonal antibody against the interleukin-6 receptor (IL-6R), CAS: 375823-41-9”, for which, in data set [1] (setting [3]), the “IFN-γ plasma level after tocilizumab premedication compared with without” value is reported as “higher levels”, the “IL-6 plasma level after tocilizumab premedication compared with without” value is “higher levels”, the “IP-10 plasma level after tocilizumab premedication compared with without” value is “higher levels” and the “interference of tocilizumab with the MoA of MBS8(1V270)” value is on record as “does not interfere”. Moreover, the “effect of tocilizumab pre-medication on cytokine and chemokine levels expected to play a role for the anti-tumor activity of MBS8(1V270)” value in data set [1] (tocilizumab 8 mg/kg prior to MBS8(1V270) 0.1 mg/kg IV infusion on day 1, plasma pre-dose, 2 h, 8 h, 24 h post-end of infusion) was “does not downregulate”. In addition, the “CRS observed (clinical signs, CTCAE v5.0)” value in data set [2] (patient 4-7 pretreated with tocilizumab 8 mg/kg before MBS8(1V270) 0.1 mg/kg) is recorded as “No clinical signs of CRS; also recorded: no CRS observed at any dosing occasion”. In data set [2] (setting [4]), the “CRS experienced, number of dosing occasions” value is 0 of the 14 and the “CRS experienced, percent of dosing occasions” value was 0%.
